Values joined by “and” are separate entries in the source; they are usually repeats but may differ in a detail not shown here. Equal values may be shown once.

Common to all, as to type: in vivo
For one assay, the system named is Aedes aegypti mosquitos. As to the kind of experiment: Arm-in-cage test, protective efficacy. The following applies: for No. probing on treated arm: 30 seconds exposure; for No. probing on treated arm / % PE: per replicate cage; for Total % PE: three cages. How it is done: Additional testing was performed with the lotion formula of example 4 including: bee's wax, soybean oil, edible oil such as sunflower oil, isopropyl alcohol, cinnamon oil, cedar wood oil, citronella oil, turmeric, anise, basil oil, salt, ethyl ester, and water with the following protocols. Aedes aegypti mmosquitoes were obtained from insecticide-susceptible reference strains held at the London School of Hygiene & Tropical Medicine, UK. All mosquitoes are reared and housed under optimal environmental conditions of 25° C. ±2° C. and 80% Relative Humidity with a 12:12 hour photoperiod. Testing was carried out in a testing room maintained at […] and 80% RH with a 12:12 hour photoperiod. For each product, the same person carried out the arm-in-cage testing.
For each product test, three batches of 50 female mosquitoes were placed in cages 30×30×30 cm inside the testing room. Before the start of each test a bare arm with gloved hand was inserted into the cage for 30 seconds to assess the biting readiness of the mosquitoes. Only cages with at least ten mosquitoes landing within 30 seconds were used in subsequent testing. The number of mosquitoes probing the untreated arm was counted at the end of the 30 second test. Following the combined fitness/control test, the product was applied onto the right arm at the WHO standard rate of 1 ml per 600 cm2 ([…] per cm2) for the Mosquito Insect Repellent and DEET, and at a rate of 2 mg per cm′ for the Sunscreen Repellent. The arm was then inserted into the cage for 30 seconds and the number of mosquitoes probing on the arm counted and recorded. The procedure was repeated with a total of three cages. This was repeated for each of the three cages and at hourly intervals until 8 hours post-application or until protection drops below 50%. Each product was tested on a separate test day.
Protective efficacy (PE) was calculated using the following formula: PE=(Mosquitoes probing on control arm—Mosquitoes probing on treated arm)/Mosquitoes probing on control arm×100. The average probing on the control arm during testing was 16, 17 and 21 mosquitoes at the end of the 30 second exposure time, in cages used for testing the Mosquito Insect Repellent Lotion and 8% DEET respectively. The Mosquito Insect Repellent Lotion 100% protection at 0 hours, whereas the 8% DEET provided 100% protection for 1 hour after application (Table 1). The Mosquito Insect Repellent Lotion provided over 50% protection for, 3 hours, whereas 8% DEET provided over 50% protection for 6 hours.

The subject of assay [1] is yellow fever mosquitoes, Aedes aegypti. As to the kind of experiment: In vitro K&D module biting bioassay, example 5 (No-Bite), No-Burn and 7% DEET. The settings on record: 4 hours post-treatment; p>0.05. How it is done:
The deterrent effect of the above-described compositions of example 5 (represented as NO-Bite in FIGS. 7-8) was tested in a controlled environment. In vitro laboratory tests were conducted and measured and compared to DEET and nontreated control groups for yellow fever mosquitos, Aedes aegypti. The repellency of the formulations were compared to a DEET standard, and a non-treated control against yellow fever mosquitoes, Aedes aegypti. The examples were performed in a temperature-controlled laboratory following techniques as disclosed in Klun, J. A., M. A. Kramer, A. Zhang, S. Wang, and M. Debboun. 2008. A quantitative in vitro assay for mosquito deterrent activity without human blood cells. J Am. Mosq. Contr. Assoc. 24:508-512. […] Five colony-reared female Aedes aegypti were aspirated into each chamber (FIG. 1). […] The variance in biting count means by treatment and time intervals was statistically analyzed with SAS Proc ANOVA and statistically tested for significant differences with Tukey's Studentized Range test at p<0.05 and charted with 95% Confidence Intervals (C.I.). Average % repellency was calculated with the following formula and charted by treatment and time interval: (Control Avg. Biting Count—Treatment Avg. Biting Count)÷Control Avg. […]

For assay [2], the system named is yellow fever mosquitos, Aedes aegypti. Briefly: In vitro K & D module biting bioassay, compositions of examples 1-3 vs DEET. How it is done: The deterrent effect of the above-described compositions of examples 1 -3 was tested in a controlled environment. In vitro laboratory tests were conducted and measured and compared to DEET and nontreated control groups for yellow fever mosquitos, Aedes aegypti. Bioassays were conducted in nine six-chambered Plexiglas K & D modules stocked with female Aedes aegypti mosquitos as shown in FIGS. 1-3. Five female mosquitos were aspirated into each of the six chambers of the nine modules. Repellant treatments were applied at 26.7 microliters with a pipette and spread with a small brush over 12 square centimeter sections of organdy cloth attached to a flat plastic template containing rectangular openings. The treated cloth covered template was fitted between the K & D module and a lower Plexiglas unit. The lower Plexiglas unit contained shallow surface wells filled with a blood substitute (CDTA and ATP) and covered with a moistened collagen membrane. The blood substitute was heated to 38° C. using water pumped through hose lines attached to the lower units and a water bath supplied with a temperature controlled inversion circulator. Mosquitos were exposed to the treated surfaces by opening sliding doors beneath the modules for 90-second biting counts at five post-treatment time intervals from 1 to 6 hours. Fresh, untreated mosquitos are used for each time interval.
The testing protocol including the in vitro environment provides a rigorous testing of the repellency of the composition as the mosquitos are confined with a blood meal.
An unpaired t-test was conducted on the biting counts between lotion as described herein and the control group where there was no treatment applied between the mosquito and the blood well. […] The statistical factors include t=5.8704 where df=16 and a standard error of difference is equal to 0.530. The two-tailed p value is less than 0.0001. The reduction in biting pressure when using the compositions compared to the control group is significant at the 99.99 level of significance.

As for `CCN(CC)C(=O)c1cccc(C)c1` [8% DEET, DEET], the “No. probing on treated arm” value is 0 with Aedes aegypti mosquitos (0 hours after application); 0 in the assay on Aedes aegypti mosquitos (1 hour after application); 1 and 2 and 0 in the assay with Aedes aegypti mosquitos (2 hours after application); 2 and 0 in the assay with Aedes aegypti mosquitos (3 hours after application); 2 and 1 and 0 with Aedes aegypti mosquitos (4 hours after application); 2 (2×) and 3 in the assay with Aedes aegypti mosquitos (5 hours after application). Besides, the “No. probing on treated arm” value in the assay on Aedes aegypti mosquitos (6 hours after application) was 10 and 6 and 7; with Aedes aegypti mosquitos (7 hours after application) it was 7 and 6 and 9. Moreover, the “% PE” value was 100.00% with Aedes aegypti mosquitos (0 hours after application); 100.00% in the assay with Aedes aegypti mosquitos (1 hour after application); 91.67% and 90.91% and 100.00% in the assay with Aedes aegypti mosquitos (2 hours after application); 90.00% and 100.00% with Aedes aegypti mosquitos (3 hours after application); 91.67% and 94.12% and 100.00% in the assay with Aedes aegypti mosquitos (4 hours after application); 93.10% and 88.89% and 86.96% with Aedes aegypti mosquitos (5 hours after application). The “% PE” value in the assay on Aedes aegypti mosquitos (6 hours after application) is 41.18% and 57.14% and 65.00%; with Aedes aegypti mosquitos (7 hours after application), 36.36% and 50.00% (2×). In addition, the “Total % PE” value in the assay on Aedes aegypti mosquitos (0 hours after application) is listed as 100.00%; with Aedes aegypti mosquitos (1 hour after application) it was 100.00%; with Aedes aegypti mosquitos (2 hours after application), 95.00%; with Aedes aegypti mosquitos (3 hours after application), 95.35%; in the assay on Aedes aegypti mosquitos (4 hours after application) it was 95.16%; in the assay on Aedes aegypti mosquitos (5 hours after application), 90.00%. The “Total % PE” value with Aedes aegypti mosquitos (6 hours after application) is listed as 54.90%; with Aedes aegypti mosquitos (7 hours after application), 46.34%. In the assay on Aedes aegypti mosquitos (arm-in-cage, hourly intervals), the “time after application for which 100% protection was provided” value was 1 h. The “time for which over 50% protection was provided” value in the assay with Aedes aegypti mosquitos (arm-in-cage, hourly intervals) was 6 h.
As for `CCN(CC)C(=O)c1cccc(C)c1` [DEET], the “biting activity compared with control” value in assay [1] was “no significance difference”. In addition, the repellency in assay [2] (6 hour time period) is listed as 87.1%; in assay [2] (initial start time of zero, 90-second biting counts, 26.7 microliters on 12 square centimeter cloth), 91.9%. Further, the “repellency, average for all five time periods” value in assay [2] (average of five post-treatment time intervals) is on record as 86.52%.

Values taken from patent US11219222B2, “Topical mosquito control product” (Penta 5 USA, LLC, priority 2016, dated 2022).
